# Key:
# [1] = molecular target: T1, Dihydrofolate reductase (Pneumocystis carinii, UniProt P16184)
# T1 sequence (P16184 whole entry): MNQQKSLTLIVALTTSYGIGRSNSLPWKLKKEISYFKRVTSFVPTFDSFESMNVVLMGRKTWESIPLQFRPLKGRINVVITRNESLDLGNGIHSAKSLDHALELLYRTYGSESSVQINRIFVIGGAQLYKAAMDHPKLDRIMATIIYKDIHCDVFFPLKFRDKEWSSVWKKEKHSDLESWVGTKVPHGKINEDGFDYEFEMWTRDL
# Description: Inhibition against Dihydrofolate reductase in Pneumocystis carinii
# [2] = molecular target: T2, Bifunctional dihydrofolate reductase-thymidylate synthase (Toxoplasma gondii, UniProt Q07422)
# T2 sequence (Q07422 whole entry): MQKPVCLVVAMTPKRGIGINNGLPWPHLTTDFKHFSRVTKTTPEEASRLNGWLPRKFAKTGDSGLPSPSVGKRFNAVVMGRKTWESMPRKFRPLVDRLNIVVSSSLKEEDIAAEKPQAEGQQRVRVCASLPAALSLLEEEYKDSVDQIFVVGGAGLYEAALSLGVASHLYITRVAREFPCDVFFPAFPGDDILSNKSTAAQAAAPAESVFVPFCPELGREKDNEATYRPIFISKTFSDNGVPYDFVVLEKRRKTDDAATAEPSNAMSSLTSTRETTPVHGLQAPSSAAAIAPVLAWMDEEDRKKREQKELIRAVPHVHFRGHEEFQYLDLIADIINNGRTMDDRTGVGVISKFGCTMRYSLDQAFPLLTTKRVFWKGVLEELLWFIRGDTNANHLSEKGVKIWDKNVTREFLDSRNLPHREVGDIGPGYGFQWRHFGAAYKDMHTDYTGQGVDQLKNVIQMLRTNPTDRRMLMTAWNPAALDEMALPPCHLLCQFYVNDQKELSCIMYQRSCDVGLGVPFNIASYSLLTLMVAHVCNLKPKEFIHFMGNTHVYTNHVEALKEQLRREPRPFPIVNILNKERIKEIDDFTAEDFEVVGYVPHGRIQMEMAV
# Description: Inhibition against Dihydrofolate reductase in Toxoplasma gondii
# [3] = molecular target: T3, Dihydrofolate reductase (Rattus norvegicus, UniProt Q920D2)
# T3 sequence (Q920D2 whole entry): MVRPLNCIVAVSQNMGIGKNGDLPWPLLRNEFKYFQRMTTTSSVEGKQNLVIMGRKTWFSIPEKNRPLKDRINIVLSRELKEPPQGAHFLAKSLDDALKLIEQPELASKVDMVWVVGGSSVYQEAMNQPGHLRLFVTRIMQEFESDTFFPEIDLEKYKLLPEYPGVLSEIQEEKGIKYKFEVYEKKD
# Description: Inhibition against Dihydrofolate reductase in rat liver
Compound,IC50 [1] [µM],IC50 [2] [µM],IC50 [3] [µM]
CN(Cc1c[nH]c2nc(N)nc(N)c12)c1ccc(C(=O)N(C)C(CCC(=O)O)C(=O)O)cc1 (centres undefined),0.044,0.15,0.06
Nc1nc(N)c2c(CSc3ccc(Cl)c(Cl)c3)c[nH]c2n1,58.5,11.6,5.3
COc1ccc(SCc2c[nH]c3nc(N)nc(N)c23)cc1OC,11.1,2.6,16.7
COc1ccc(OC)c(N(C)Cc2c[nH]c3nc(N)nc(N)c23)c1,> 12,3.4,> 12
Nc1nc(N)c2c(CSc3cccc4ccccc34)c[nH]c2n1,10.6,0.81,3
Nc1nc(N)c2c(CSc3ccc4ccccc4c3)c[nH]c2n1,929,9.2,82.9
CN(Cc1c[nH]c2nc(N)nc(N)c12)c1ccc(Cl)c(Cl)c1,28.3,1,3
CN(Cc1c[nH]c2nc(N)nc(N)c12)c1cccc2ccccc12,209,0.87,8.2
